For series [1], the system named is Sp protein interactions with VEGFR1 promoter sequences. The experiment in a line: Gel mobility shift of Panc-1 nuclear extracts with VEGFR1 32P and GC/SP 32P. The format is cell-based. To be noted: nuclear extracts of Panc-1 cells treated with 50 μM for 48 h.
Description: The specific Sp protein bands and antibody supershifted complexes are indicated with arrows.
Vascular endothelial growth factor and VEGFR1 oligonucleotides are synthesized and annealed, and 5 pmol aliquots are 5′-end-labeled using T4 kinase and [y-^32P]ATP. After the reaction sample was incubated 20 min on ice, and antibodies against Sp1, Sp3, and Sp4 proteins are added and incubated another 20 min on ice.
FIGS. 16A and 16B compare the gel mobility shift and antibody supershift patterns of nuclear extracts from Panc-1 cells bound to the proximal region of the VEGFR1 promoter containing both GC-rich and Egr-1 sites (VEGFR1^32P) or GC-rich sites alone (GC/SP^32P).
The subject of series [2] is SEG-1 esophageal cancer cells. As to the kind of experiment: Cell proliferation assay, SEG-1 esophageal cancer cells. The format is cell-based. More on the design: dose or concentration left out as unconfirmed. To be noted: DMSO control.
For series [3], the system named is orthotopically implanted human pancreatic L3.6p1 cancer cells. As to the kind of experiment: Orthotopic pancreatic tumor model in athymic nude mice. To be noted: for Body Weight Median / Incidence Liver metastasis / Pancreatic Tumor Incidence (positive mice/mice injected) / Tumor Volume Median / Tumor Weight Median: thrice weekly oral from day 7, sacrificed day 35. As to the method: Median tumor volumes (FIG. 8A) and weights (FIG. 8B) in athymic nude mice treated orthotopically with L3.6pl cells, and corn oil (control), tolfenamic acid (25 and 50 mg/kg), and gemcitabine (50 mg/kg) were determined. […] Tumors from the various treatment groups were analyzed for Sp1, Sp3, Sp4, and VEGF protein expression by Western blot analysis. […] Immunostaining is shown for VEGF (FIG. 8D), and CD31 (FIG. 8E). Pancreatic tumor sections from animals treated with solvent (control), gemcitabine (50 mg/kg) and tolfenamic acid (25 and 50 mg/kg) were immunostained with VEGF and CD31 antibodies.
Male athymic nude mice (NCI-nu) are purchased from the Animal Production Area of the National Cancer Institute Frederick Cancer Research and Development Center, housed and maintained under specific pathogen-free conditions in accordance with current regulations and standards of the United States Department of Agriculture. Injection of L3.6pl cells (with greater than 90% viability is performed as previously described (Bruns et al, 1999). Seven days after implantation of tumor cells into the pancreas of each mouse, five mice are killed to confirm the presence of tumor lesions.
Mice (10 animals per treatment group) are randomized to receive one of the following treatments: (1) thrice weekly oral administrations of vehicle solution which will serve as a control group; (2) thrice weekly oral administrations of at least three non-steroidal anti-inflammatory drugs at doses of 10, 25, and 50 mg/kg/day; (3) twice weekly intraperitoneal injections of 50, 75, and 100 mg/kg/day gemcitabine alone; and (4) combinations of gemcitabine and non-steroidal anti-inflammatory drugs. Mice are sacrificed on day 35 and body weights measured. Primary tumors in the pancreas are excised, measured, weighed. For immunohistochemistry (IHC) and hematoxylin and eosin (H&E) staining procedures, one part of the tumor tissue is fixed in formalin and embedded in paraffin, and another part is embedded in TISSUE-TEK® O.C.T. compound, rapidly frozen in liquid nitrogen, and stored at −70° C. Visible liver metastases are counted with the aid of a dissecting microscope, and the tissues processed for hematoxylin and eosin staining.
Paraffin-embedded tissues are used for identification of Sp proteins, VEGFR2p27 and vascular endothelial growth factor. Tissue sections ([…] thick) are mounted on positively charged SUPERFROST slides (Fischer Scientific, Co, Houston, Tex.) and dried overnight. Sections are deparaffinized in xylene and treated with a graded series of alcohol [100, 95, and 80% ethanol (v/v) in double distilled H2O] and rehydrated in phosphate buffered saline (pH 7.5). Tissues are treated with pepsin (Biomeda) for 15 min at 37° C. and washed with phosphate buffered saline. A positive reaction is visualized by incubating the slides with stable 3,3′-diaminobenzidine for 10-20 min. Sections are rinsed with distilled water, counterstained with Gill's hematoxylin for 1 min, and mounted with UNIVERSAL MOUNT (Research Genetics). […] Tumor sample lysates are also examined by western blot analysis for the same proteins.
The potential anti-tumorigenic and anti-angiogenic activity of tolfenamic acid against pancreatic tumors was investigated in an orthotopic athymic nude mouse model. L3.6pl cells were used for this study based on their aggressive growth and production of liver metastases (Bruns et al, 1999; Dubois et al, 1998).

Setting [4] is: tolfenamic acid 50 mg/kg, p < 0.005 vs controls.

Marks after values point to notes of the source that are not given here.

Consider `Cc1c(Cl)cccc1Nc1ccccc1C(=O)O` [tolfenamic acid], for which the “Sp1, Sp3, and Sp4-DNA retarded band intensity with VEGFR1 32P and GC/SP 32P” value in series [1] is on record as “retarded band intensity was markedly decreased”. Moreover, the “growth of SEG-1 esophageal cancer cells” value in series [2] is “inhibits growth”. For the same compound, in series [3] (25 or 50 mg/kg/d), the “median tumor weights and volumes” value is “decreased median tumor weights and volumes”; the “percent incidence of liver metastasis” value is “decreased the percent incidence of liver metastasis”. Also, in series [3] (at comparable doses), the “tumor growth inhibition compared with gemcitabine” value is on record as “more effective than gemcitabine as a tumor growth inhibitor”. For the same compound, in series [3] (compared to tumors from vehicle (corn oil) or gemcitabine-treated animals), the “CD31 staining (microvessel density) in tumors” value is reported as “decreased staining”. In series [3] (tolfenamic acid 25 mg/kg), the “Body Weight Median” value was 25 g, the “Incidence Liver metastasis” value was 1/10, the “Pancreatic Tumor Incidence (positive mice/mice injected)” value is listed as 10/10 and the “Tumor Volume Median” value turned out to be 1732.8 mm^3. The “Tumor Weight Median” value in series [3] (tolfenamic acid 25 mg/kg) was found to be 1.2 g. For the same compound, in series [3] (tolfenamic acid 50 mg/kg), the “Body Weight Median” value is reported as 24 g, the “Incidence Liver metastasis” value was 1/10 and the “Pancreatic Tumor Incidence (positive mice/mice injected)” value was 10/10. In series [3] (setting [4]), the “Tumor Volume Median” value is 348.8^c mm^3 and the “Tumor Weight Median” value is 0.4^c g. Besides, the “immunostaining for vascular endothelial growth factor in tumor sections” value in series [3] (tolfenamic acid 25 and 50 mg/kg) is “decreased staining”. The “VEGFR1 staining of tumor tissue” value in series [3] (tolfenamic acid 25 and 50 mg/kg, gemcitabine 50 mg/kg and solvent as comparison) is “decreased VEGFR1 expression only in tumors from tolfenamic acid-treated mice”. The “expression of Sp1, Sp3, Sp4 and vascular endothelial growth factor in pancreatic tumors, Western blot” value in series [3] (tolfenamic acid versus corn oil control-treated animals) is “significantly decreased expression of Sp1, Sp3, Sp4 and vascular endothelial growth factor”.

Source of the values: patent US20080261911A1, “Uses of diphenyl/diphenylamine carboxylic acids” (priority 2006, published 2008).
